# Data as given in patent US20250281476A1, “EFINACONAZOLE ORAL COMPOSITION” (priority 2020, published 2025).
# Where two headings read alike, the source gives them in different places.
# Legend:
# [1] = Stability test of 10% solutions at room temperature and 65° C., purity by HPLC; type: physicochemical; conditions: solution (10%)
# Method: The stability of the co-crystal of efinaconazole to temperature and a solution was evaluated and compared with that of efinaconazole by the following experimental method.
# A co-crystalline form of efinaconazole was prepared.
# [2] = in vivo; conditions: for AUC(0-t): AUCt; for concentration at 0.5 h: read-out: Blood voriconazole concentration, Time 0.5 hr; for concentration at 1 h: read-out: Blood voriconazole concentration, Time 1 hr; for concentration at 2 h: read-out: Blood voriconazole concentration, Time 2 hr; for concentration at 4 h: read-out: Blood voriconazole concentration, Time 4 hr; for concentration at 6 h: read-out: Blood voriconazole concentration, Time 6 hr; for concentration at 8 h: read-out: Blood voriconazole concentration, Time 8 hr; for concentration at 10 h: read-out: Blood voriconazole concentration, Time 10 hr
# Method: 24 male beagle dogs were divided into 4 groups, 6 animals per group. Voriconazole as a control drug was once administered to the animals via an oral route under fasting conditions. Efinaconazole as a test drug was once administered to the animals via intravenous and oral routes under fasting conditions. Thereafter, the pharmacokinetic (PK) profiles of the drugs were determined to calculate PK parameters of the drugs and evaluate the pharmacokinetics of the drugs. Specific test conditions and methods are as follows.
# The test substances were weighed with an electronic balance. Each of the weighed test substances was placed in a glass container and 0.5% methylcellulose in a 1% Tween 80 solution (distilled water) as an excipient was added thereto. The mixture was vortexed and sonicated to prepare a homogeneous test material.
# For intravenous administration, the doses of efinaconazole (intravenous administration group G1) were calculated based on the body weights of the animals. To the test substance was added PEG400 as an excipient whose volume corresponded to 30% of the total volume of a final test material. The mixture was vortexed and sonicated for complete dissolution. To the solution was added ethanol in an amount corresponding to 20% of the total volume of the test material, followed by homogenization by sonication. Then, 0.9% saline was added in an amount corresponding to 50% of the total volume of the test material, followed by vortexing and sonication to in situ prepare the test material in a homogeneous state.
# • Routes of administration: Intravenous (IV) and oral (PO) • Doses: G1 (Voriconazole)—6 mg/5 ml/kg (PO); G2 (Efinaconazole)—6 mg/5 ml/kg (PO); G3 (Efinaconazole-Polymer)—6 mg/5 ml/kg (PO); G1 (Efinaconazole)—0.5 mg/I ml/kg (IV) • Frequency of administration: Single dose (once daily)—(QD)
# 4 ml of blood was collected from each point and centrifuged. 500 μl of the plasma supernatant was dispensed in a 1.5 ml EP tube and the remaining plasma was dispensed into a set of 1.5 ml EP tubes. The samples were stored in a deep freezer at −80° C. After completion of the testing, the blood collection records, sample information certificates, dispensing records, clinical symptom observation records, medication/blood collection results, and test samples (plasma samples) were sent to a specialized analysis agency.
# After storage in a freezer, the samples were analyzed by LC/MS/MS and their pharmacokinetic parameters were calculated in a noncompartmental manner using “Phoenix WinNonlin (Version 8.2 or higher, Certara L. P)” software.
# AUCt, a bioavailability parameter, is the area under the plasma concentration-time curve from the time of administration medication to the last time point of blood collection with a measurable concentration and was calculated by the trapezoidal formula. Cmax is the highest plasma drug concentration read from the plasma drug concentration-time curve of each sample and Tmax is the time taken to reach the highest plasma drug concentration read from the plasma drug concentration-time curve of each sample. AUC∞ is the area under the plasma concentration-time curve from the time of administration to time infinity.
# [3] = cited from earlier work
# [4] = male, beagle, dog, in vivo, 0.5 mg/kg, Blood efinaconazole concentration, Time 12 hr
# [5] = male, beagle, dog, in vivo, 6 mg/kg, Geometric Means
# [6] = male, beagle, dog, in vivo, po, 6 mg/kg, Cmax
# [7] = male, beagle, dog, in vivo, po, 6 mg/kg, Geometric Means
# [8] = male, beagle, dog, in vivo, po, 6 mg/kg, Geometric Means, Cmax
# [9] = male, dog, in vivo, 6 mg/kg, beagle dog, fasting, single 6 mg/kg P.O, group Mean (6 animals)
# [10] = male, dog, in vivo, 6 mg/kg, beagle dog, fasting, single 6 mg/kg P.O, individual animals
structure (smiles),measurement,setting,value
C=C1CCN([C@H](C)[C@](O)(Cn2cncn2)c2ccc(F)cc2F)CC1 [Efinaconazole],HPLC (%) After 1 week,[1]; 65° C.,99.55%
same,Related substances (%) After 1 week,[1]; 65° C.,0.45%
same,HPLC (%) After 2 weeks,[1]; 65° C.,99.46%
same,Related substances (%) After 2 weeks,[1]; 65° C.,0.54%
same,HPLC (%) After 4 weeks,[1]; 65° C.,98.47%
same,Related substances (%) After 4 weeks,[1]; 65° C.,1.53%
same,HPLC (%) After 1 week,[1]; room temp.,99.73%
same,Related substances (%) After 1 week,[1]; room temp.,0.27%
same,HPLC (%) After 2 weeks,[1]; room temp.,99.61%
same,Related substances (%) After 2 weeks,[1]; room temp.,0.39%
same,HPLC (%) After 4 weeks,[1]; room temp.,99.60%
same,Related substances (%) After 4 weeks,[1]; room temp.,0.40%
same,"Blood efinaconazole concentration, Time 8 hr","[2]; dog, in vivo, 0.5 mg/kg",BLQ
same,"Blood efinaconazole concentration, Time 10 hr","[2]; dog, in vivo, 0.5 mg/kg",BLQ
same,"Blood efinaconazole concentration, Time 12 hr","[2]; dog, in vivo, 0.5 mg/kg",BLQ
same,"Blood efinaconazole concentration, Time 24 hr","[2]; dog, in vivo, 0.5 mg/kg",BLQ
same,bioavailability compared with other antifungals when administered orally,"[2]; dog, in vivo, po","higher than those of other antifungals, including voriconazole and itraconazole"
same,concentration at 0.053 h,"[2]; male, beagle, dog, in vivo, 0.5 mg/kg, Blood efinaconazole concentration, Time 0.053 hr",262 ng/mL
same,concentration at 0.25 h,"[2]; male, beagle, dog, in vivo, 0.5 mg/kg, Blood efinaconazole concentration, Time 0.25 hr",168 ng/mL
same,concentration at 12 h,[2]; [4],1.36 ng/mL
same,concentration at 12 hr,[2]; [4],3.52 ng/mL
same,concentration at 24 h,"[2]; male, beagle, dog, in vivo, 0.5 mg/kg, Blood efinaconazole concentration, Time 24 hr",0 ng/mL
same,AUC(0-t),"[2]; male, beagle, dog, in vivo, 0.5 mg/kg, Geometric Means",245 ng·h/mL
same,Cmax,"[2]; male, beagle, dog, in vivo, 0.5 mg/kg, Geometric Means, Cmax",318 ng/mL
same,bioavailability,"[2]; male, beagle, dog, in vivo, 6 mg/kg",51.4 ± 24.6%
same,concentration at 2 hr,"[2]; male, beagle, dog, in vivo, 6 mg/kg, Blood efinaconazole concentration, Time 2 hr",177 ng/mL
same,concentration at 4 hr,"[2]; male, beagle, dog, in vivo, 6 mg/kg, Blood efinaconazole concentration, Time 4 hr",64.9 ng/mL
same,concentration at 6 hr,"[2]; male, beagle, dog, in vivo, 6 mg/kg, Blood efinaconazole concentration, Time 6 hr",27.5 ng/mL
same,AUC(0-t),[2]; [5],1440 ng·h/mL
same,Cmax,"[2]; male, beagle, dog, in vivo, iv, 0.5 mg/kg, Cmax",322 ± 58.6 ng/mL
same,Tmax,"[2]; male, beagle, dog, in vivo, iv, 0.5 mg/kg, Tmax",4.98 min
same,Cmax,[2]; [6],925 ± 236 ng/mL
same,AUC(0-t),[2]; [7],1440 ng·h/mL
same,Cmax,[2]; [8],904 ng/mL
same,water solubility,[3],~610 µg/mL
C[C@@H](c1ncncc1F)[C@](O)(Cn1cncn1)c1ccc(F)cc1F [Voriconazole],AUCt/AUC∞,"[2]; beagle dog, fasting, single 6 mg/kg P.O, group Mean (6 animals)",51.125
same,AUC(0-t),[2]; [5],53500 ng·h/mL
same,AUC(0-t),"[2]; male, beagle, dog, in vivo, po, 6 mg/kg",53900 ng·h/mL
same,AUC(0-inf),"[2]; male, beagle, dog, in vivo, po, 6 mg/kg, AUC∞",109000 ng·h/mL
same,Cmax,[2]; [6],3670 ng/mL
same,AUC(0-t),[2]; [7],53500 ng·h/mL
same,Cmax,[2]; [8],3670 ng/mL
same,concentration at 0.053 h,"[2]; male, dog, in vivo, 6 mg/kg, beagle dog, fasting, single 6 mg/kg P.O, group Mean (6 animals), read-out: Blood voriconazole concentration, Time 0.053 hr",443 ng/mL
same,concentration at 0.25 h,"[2]; male, dog, in vivo, 6 mg/kg, beagle dog, fasting, single 6 mg/kg P.O, group Mean (6 animals), read-out: Blood voriconazole concentration, Time 0.25 hr",2720 ng/mL
same,concentration at 0.5 h,[2]; [9],3410 ng/mL
same,concentration at 1 h,[2]; [9],3440 ng/mL
same,concentration at 2 h,[2]; [9],3090 ng/mL
same,concentration at 4 h,[2]; [9],2950 ng/mL
same,concentration at 6 h,[2]; [9],2610 ng/mL
same,concentration at 8 h,[2]; [9],2460 ng/mL
same,concentration at 10 h,[2]; [9],2270 ng/mL
same,concentration at 12 h,"[2]; male, dog, in vivo, 6 mg/kg, beagle dog, fasting, single 6 mg/kg P.O, group Mean (6 animals), read-out: Blood voriconazole concentration, Time 12 hr",2180 ng/mL
same,concentration at 24 h,"[2]; male, dog, in vivo, 6 mg/kg, beagle dog, fasting, single 6 mg/kg P.O, group Mean (6 animals), read-out: Blood voriconazole concentration, Time 24 hr",1500 ng/mL
same,concentration at 0.5 h,[2]; [10],3280 ng/mL
same,concentration at 1 h,[2]; [10],3280 ng/mL
same,concentration at 2 h,[2]; [10],3000 ng/mL
same,concentration at 4 h,[2]; [10],2940 ng/mL
same,concentration at 6 h,[2]; [10],2660 ng/mL
same,concentration at 8 h,[2]; [10],2430 ng/mL
same,concentration at 10 h,[2]; [10],2250 ng/mL
same,concentration at 12 h,"[2]; male, dog, in vivo, 6 mg/kg, beagle dog, fasting, single 6 mg/kg P.O, individual animals, read-out: Blood voriconazole concentration, Time 12 hr",2160 ng/mL
same,concentration at 24 h,"[2]; male, dog, in vivo, 6 mg/kg, beagle dog, fasting, single 6 mg/kg P.O, individual animals, read-out: Blood voriconazole concentration, Time 24 hr",1470 ng/mL
same,Cmax,"[2]; male, dog, in vivo, po, 6 mg/kg, beagle dog, fasting, single 6 mg/kg P.O, individual animals, read-out: Cmax",3520 ng/mL
